Measurements taken from US11891386B2, “Indole compounds and their use” (ARIAGEN, INC., priority 2017, dated 2024).
Where two headings read alike, the source gives them in different places.

Experiments:
[1] = test system: CYP1A1 in human HepG2 cells; assay: EROD assay (7-ethoxy-resorufin-O-deethylase), human HepG2 cells; assay type: cell-based; parameters: key to activity group based on EC50 values, in the order of increasing activity: (1) active; (2) more active; (3) most active; conditions: for activity group based on EC50 values, in the order of increasing activity: human EROD assay, oxadiazole derivatives of ITE; for activity in the human EROD assay compared to ARI-001 / ARI-002, in words / EC50: human HepG2 cells; for EC50: EROD assay, 20 hours treatment
Procedure: (§1) CYP1A1 induction is under the control of the AhR signaling pathway. This Example describes an in vitro assay (7-ethoxy-resorufin-O-deethylase (EROD) assay) that evaluated the AhR modulating activities of the indole compounds described herein. In this assay, the indole compounds were incubated with human HepG2 cells or mouse Hepal-6 cells. The activity of CYP1A1 in the cells was measured by the conversion of substrate 7-ethoxyresorufin, with the readout being a fluorescence signal associated with the conversion product. The EC50 values of the indole compounds as well as the maximum […] induced by them in the assay were determined.
(§2) Human HepG2 cells were obtained from Sigma Aldrich (Catalog 85011430-1VL). Mouse Hepal-6 cells also were obtained from Sigma Aldrich (Catalog 92110305-1V).
(§3) Human HepG2 and Mouse Hepal-6 cells were grown to 60-80% confluency in tissue culture flasks, lifted with non-enzymatic cell dissociation solution (cell stripper), seeded in a 384-well plate at 5,000 cells per well, treated with the test compounds, and incubated for 20 hours overnight at 37° C. The treatment medium was removed and a solution of substrate 7-ethoxyresorufin (ETX) was added to initiate the reaction. The plate was incubated at 37° C. for 30 minutes. The reaction was subsequently terminated by adding tempered methanol. Fluorescent emission was measured at 590 nm with excitation at 530 nm in a FLEXSTATION III instrument (Molecular Devices).

[2] = test system: EMT-6 syngeneic mouse tumor model (breast cancer); assay: Anti-tumor activity, EMT-6 syngeneic mouse tumor model; assay type: in vivo; conditions: for anti-tumor potency, in words: EMT-6 model, 40 mpk; for inhibition in vivo at 40 mg/kg: Mus musculus, EMT6, ip, read-out: TGI (tumor growth inhibition)
Procedure: This example describes in vivo studies that evaluated the anti-cancer efficacy of the disclosed indole compounds in syngeneic mouse tumor models. Mice implanted subcutaneously with four types of cancer cells were treated with test indole compounds or vehicle controls as described below.
A monolayer culture of tumor cells was maintained in vitro in DMEM or RPMI1640 medium supplemented with 10% fetal bovine serum at 37° C. in an atmosphere of 5% CO2. Cells in exponential growth phase were harvested and quantitated by cell counter before tumor inoculation. The cell lines used are described in the table below.
Four subcutaneous syngeneic mouse tumor models were generated by innoculating female BALB/C or C57BL/6 mice with cancer cells at their right lower or front flank as detailed in the table below:
Each mouse was inoculated subcutaneously with tumor cells in 0.1 mL of PBS. Treatments were started when the mean tumor size reached approximately 80-120 mm^3 (around 100 mm^3). The administration of the indole compounds and the animal number in each study group are shown in the study design. The date of tumor cell inoculation was denoted as day 0.
The indole compounds were dissolved in DMSO at the final concentration of 26.7 mg/ml and stored at room temperature.
Randomization of animals was started when the mean tumor size reached approximately 90 mm^3 to form the mouse study groups. The randomization was performed based on “Matched distribution” method using the multi-task method (StudyDirector™ software, version 3.1.399.19)/randomized block design. The mouse groups (ten in each group) were treated with vehicle (DMSO) or the indole compounds at a dose of 40 mg/kg by i.p. injection, QD for 28 days or longer.
After tumor cell inoculation, the mice were checked daily for morbidity and mortality. During routine monitoring, the mice were checked for tumor growth and any effects of the treatment on behavior such as mobility, food and water consumption, body weight gain/loss (body weights were measured twice per week after randomization), eye/hair matting, and any other abnormalities. Mortality and observed clinical signs were recorded for individual mice in detail.
Tumor volumes were measured twice per week in two dimensions using a caliper, and the volume was expressed in mm^3 using the formula: V=(L×W×W)/2, where V is tumor volume, L is tumor length (the longest tumor dimension) and W is tumor width (the longest tumor dimension perpendicular to L). Dosing as well as tumor and body weight measurements was conducted in a Laminar Flow Cabinet. The body weights and tumor volumes were measured by using StudyDirector™ software (version 3.1.399.19). Dosing Holiday
Tumor growth inhibition percentage (TGI %) is an indicator for antitumor activity of a drug compound, and expressed as: TGI (%)=100×(1−T/C), where T and C are the mean tumor volume (or weight) of the treated and control groups, respectively, on a given day. Statistical analysis of the difference in mean tumor volume (MTV) among the groups was conducted using the data collected on the day when the MTV of the vehicle group reached the humane endpoints, so that TGI could be derived for all or most mice enrolled in the study.
In Studies 1 and 3, the anti-tumor activity of ARI-001 in parallel with ARI-002 at 160 mg/kg (mpk), and the anti-tumor activity of ARI-087 in parallel with ARI-002 at 40 mpk were assessed using the EMT-6, Pan02, A20, and LL/2 models. Because EMT-6 provides a fast-growing model that enables relatively quick differentiation of performance between compounds, this syngeneic mouse tumor model was chosen for the other studies. In Study 2, the anti-tumor activity of ARI-002 was compared with that of ARI-004 at 10, 40, and 80 mpk. In Study 4, the anti-tumor activity of ARI-087 was compared with that of ARI-140. In Study 5, the anti-tumor activity of ARI-087 was evaluated in parallel with ARI-143 and ARI-149 at 40 mpk. […]

[3] = test system: CYP1A1 in mouse Hepal-6 cells; assay: EROD assay (7-ethoxy-resorufin-O-deethylase), mouse Hepa1-6 cells; assay type: cell-based; conditions: for EC50: EROD assay, 20 hours treatment
Procedure: as §1, §2, §3

[4] = 624 h, Study 6, EMT-6, 40 mpk i.p. QD, D26
[5] = 720 h, Study 5, EMT-6, 40 mpk i.p. QD, D30

SMILES	activity group based on EC50 values, in the order of increasing activity [1]	activity in the human EROD assay compared to ARI-001 / ARI-002, in words [1]	anti-tumor potency, in words [2]	inhibition in vivo at 40 mg/kg [2, 4] [%]	activity in the mouse EROD assay, in words [3]	EC50 [1] [nM]	EC50 [3] [nM]	inhibition in vivo at 40 mg/kg [2, 5] [%]	inhibition in vivo at 40 mg/kg ([2]; 672 h, Study 4, EMT-6, 40 mpk i.p. QD, D28) [%]
O=C(c1nc(-c2nnco2)cs1)c1c[nH]c2ccccc12 [ARI-056, (4-(1,3,4-oxadiazol-2-yl)thiazol-2-yl)(1H-indol-3-yl)methanone]	active	significantly more (about 4 to 900 times more) active than ARI-001	less anti-tumor potency than ARI-087	34.3					
Nc1nnc(-c2csc(C(=O)c3c[nH]c4ccccc34)n2)s1 [ARI-090, (4-(5-amino-1,3,4-thiadiazol-2-yl)thiazol-2-yl)(1H-indol-3-yl)methanone]	more active	significantly more (about 4 to 900 times more) active than ARI-001	less anti-tumor potency than ARI-087	30.1					
CNC(=O)c1csc(C(=O)c2c[nH]c3ccc(Cl)cc23)n1 [ARI-049, 2-(5-chloro-1H-indole-3-carbonyl)-N-methylthiazole-4-carboxamide]		less active			less active				
Cc1nnc(-c2csc(C(=O)c3c[nH]c4ccccc34)n2)o1 [ARI-060, (1H-indol-3-yl)(4-(5-methyl-1,3,4-oxadiazol-2-yl)thiazol-2-yl)methanone]	active	significantly more (about 4 to 900 times more) active than ARI-001							
CCC(=O)c1csc(C(=O)c2c[nH]c3cccc(F)c23)n1 [ARI-142, 1-(2-(4-fluoro-1H-indole-3-carbonyl)thiazol-4-yl)propan-1-one]		less active than ARI-002				64.8	12.8		
NCc1nnc(-c2csc(C(=O)c3c[nH]c4c(F)cccc34)n2)o1 [ARI-145, (4-(5-(aminomethyl)-1,3,4-oxadiazol-2-yl)thiazol-2-yl)(7-fluoro-1H-indol-3-yl)methanone]	more active	significantly more (about 4 to 900 times more) active than ARI-001	less anti-tumor potency than ARI-087		most active among the tested oxadiazole compounds			10.5	
CCC(=O)c1csc(C(=O)c2c[nH]c3c(F)cccc23)n1 [ARI-140, 1-(2-(7-fluoro-1H-indole-3-carbonyl)thiazol-4-yl)propan-1-one]					less active than ARI-002	0.7	19.5		30.6
Nc1nnc(-c2csc(C(=O)c3c[nH]c4ccc(F)cc34)n2)o1 [ARI-148, (4-(5-amino-1,3,4-oxadiazol-2-yl)thiazol-2-yl)(5-fluoro-1H-indol-3-yl)methanone]	more active	significantly more (about 4 to 900 times more) active than ARI-001	less anti-tumor potency than ARI-087					4.8	
CNC(=O)c1csc(C(=O)c2c[nH]c3ccc(F)cc23)n1 [ARI-065, 2-(5-fluoro-1H-indole-3-carbonyl)-N-methylthiazole-4-carboxamide]		less active			less active				
NCc1nc(-c2csc(C(=O)c3c[nH]c4c(F)cccc34)n2)no1 [ARI-146, (4-(5-(aminomethyl)-1,2,4-oxadiazol-3-yl)thiazol-2-yl)(7-fluoro-1H-indol-3-yl)methanone]			less anti-tumor potency than ARI-087					23.2	
COC(=O)c1csc(C(=O)c2c[nH]c3ccc(F)cc23)n1 [ARI-066, methyl 2-(5-fluoro-1H-indole-3-carbonyl)thiazole-4-carboxylate]		less active			less active				
Nc1nnc(-c2csc(C(=O)c3c[nH]c4cc(Cl)c(Cl)cc34)n2)o1 [ARI-120, (4-(5-amino-1,3,4-oxadiazol-2-yl)thiazol-2-yl)(5,6-dichloro-1H-indol-3-yl)methanone]	most active	significantly more (about 4 to 900 times more) active than ARI-001	less anti-tumor potency than ARI-087		most active among the tested oxadiazole compounds			27.2	
COC(=O)c1csc(C(=O)c2c[nH]c3ccc(Cl)cc23)n1 [ARI-055, methyl 2-(5-chloro-1H-indole-3-carbonyl)thiazole-4-carboxylate]		less active			less active				
